1 molecule from patent publication US6759547B1, “5,6,7,8-tetrahydronaphthalen-2-yl 2,6-difluoroheptatrienoic acid derivatives having serum glucose reducing activity” (Allergan, Inc., priority 2003, dated 2004) can be followed below.

The target of one data set is T1, RXRα (Homo sapiens, UniProt P19793).
T1 construct: expressed in transfected cells
T1 sequence (P19793 1-462): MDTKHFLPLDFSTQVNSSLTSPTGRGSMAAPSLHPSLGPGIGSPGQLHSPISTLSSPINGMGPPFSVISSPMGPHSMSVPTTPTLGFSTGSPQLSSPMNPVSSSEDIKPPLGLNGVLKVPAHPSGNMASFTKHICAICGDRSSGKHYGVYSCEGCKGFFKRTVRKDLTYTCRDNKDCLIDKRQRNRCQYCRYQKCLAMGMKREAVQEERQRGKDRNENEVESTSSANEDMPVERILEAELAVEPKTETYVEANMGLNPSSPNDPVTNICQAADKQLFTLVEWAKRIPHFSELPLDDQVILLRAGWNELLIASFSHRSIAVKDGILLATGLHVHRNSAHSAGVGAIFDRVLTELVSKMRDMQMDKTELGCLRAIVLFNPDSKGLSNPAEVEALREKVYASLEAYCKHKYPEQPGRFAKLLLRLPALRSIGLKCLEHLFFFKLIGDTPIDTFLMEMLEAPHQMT
Briefly: holoreceptor transactivation assay, RXRα. Format: cell-based. Particulars: efficacy as a percentage compared to the standard compound. An excerpt:
(§1) Particularly, the transactivation data pertaining to activation of the RAR receptors were obtained in the chimeric assay, and the transactivation data pertaining to the activation of RXR receptors were obtained in the holoreceptor assay.

The target in a further data set is T2, RXRβ (Homo sapiens, UniProt P28702).
T2 construct: expressed in transfected cells
T2 sequence (P28702 1-533): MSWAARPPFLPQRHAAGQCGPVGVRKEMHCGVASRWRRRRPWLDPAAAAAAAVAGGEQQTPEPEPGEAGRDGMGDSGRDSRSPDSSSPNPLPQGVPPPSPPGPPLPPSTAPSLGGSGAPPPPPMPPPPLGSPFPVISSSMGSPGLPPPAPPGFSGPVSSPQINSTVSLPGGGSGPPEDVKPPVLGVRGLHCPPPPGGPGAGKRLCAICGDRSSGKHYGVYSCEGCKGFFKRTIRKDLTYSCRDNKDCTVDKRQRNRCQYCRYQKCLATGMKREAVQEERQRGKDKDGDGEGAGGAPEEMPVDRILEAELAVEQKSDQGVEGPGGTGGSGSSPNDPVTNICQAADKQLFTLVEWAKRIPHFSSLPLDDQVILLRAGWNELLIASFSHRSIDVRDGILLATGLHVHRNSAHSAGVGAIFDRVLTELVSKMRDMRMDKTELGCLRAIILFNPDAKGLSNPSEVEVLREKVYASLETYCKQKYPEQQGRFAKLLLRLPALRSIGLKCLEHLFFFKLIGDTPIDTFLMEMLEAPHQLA
Briefly: holoreceptor transactivation assay, RXRβ. In kind it is cell-based.
Text: as §1

For data set [1], the system named is female diabetic db/db mice. Kind of data set: serum glucose, triglyceride and thyroxine levels in db/db mice. Format: in vivo. The method, then: An assay described below tests the effect of compounds of the invention on serum glucose, tryglyceride and thyroxine levels in female 9-10 weeks old db/db mice.
Blood samples (70 μl) were taken by orbital bleeding at 11:00 AM on day 0 (pre-treatment), day 3, and day 6. On day 7, a blood sample (700 μl) was taken at 11:00 AM and the animals were sacrificed. Glucose, triglyceride and thyroxine (T4) levels were determined on a Boehringer Manheim Hatachi Clinical Chemistry Analyzer using standard protocols provided by the manufacturer and reagents that were supplied in commercially available kits (glucose and T4; Boehringer Manheim; triglycerides: Roche Diagnostics). Seven animals were treated in each group.

Where [2] appears, read: female db/db mice, day 0 (pre-treatment), groups: standard compound 5 mg/kg, Compound 27 50 mg/kg.
Setting [3] is: female db/db mice, oral gavage daily, standard compound 5 mg/kg, Compound 27 50 mg/kg.

`CC(/C=C/[C@@H]1C[C@]1(C)c1ccc2c(c1)C(C)(C)CCC2(C)C)=C\C(=O)O` [Standard compound, (2E,4E,1'S,2'S)-3-methyl-5-[2′-methyl-2′-(5,5,8,8-tetramethyl-5,6,7,8-tetrahydro-naphthalen-2-yl)-cyclopropyl]-penta-2,4-dienoic acid]: the “RXR Trans. efficacy α” value at RXRα stood at 100%. In addition, the “RXR Trans. efficacy β” value at RXRβ (efficacy as a percentage compared to the standard compound) was found to be 100%. For the same molecule, the “efficacy in activating RXRβ compared with RXRα and RXRγ” value on RXRβ (transactivation, comparison of subtypes) was “approximately equally efficacious in activating the RXRα, RXRβ and RXRγ subtypes”. The “effect on serum thyroxine levels” value in data set [1] (diabetic mammals (db/db mice), in words) is “undesirable side effect of reducing serum thyroxine levels”. In addition, in data set [1] (setting [2]), the “Glucose Day 0” value worked out at 356 mg/dL and the “Triglycerides Day 0” value stood at 152 mg/dL. Further, the “T4 Day 7” value in data set [1] (female db/db mice, oral gavage daily for seven days, standard compound 5 mg/kg, Compound 27 50 mg/kg) turned out to be 2.6 ± 0.6 µg/dL. Also, in data set [1] (setting [3]), the “Glucose Day 3, 3 h” value worked out at 249 mg/dL; the “Glucose Day 6, 3 h” value was determined as 239 mg/dL; the “Triglycerides Day 3, 3 h” value was determined as 137 mg/dL.
